According to ChEMBL document CHEMBL2440076, “New triarylpyrazoles as broad-spectrum anticancer agents: design, synthesis, and biological evaluation” (Eur J Med Chem, 2013):

What was measured:
Format in all cases: functional
[1] = system: IGROV-1; experiment: Growth inhibition of human IGROV1 cells assessed as cell growth at 10^-8 M after 48 hrs by sulforhodamine B assay; conditions: IGROV-1, 48 h, read-out: Activity
[2] = system: NCI-H226; experiment: Growth inhibition of human NCI-H226 cells assessed as cell growth at 10^-6 M after 48 hrs by sulforhodamine B assay; conditions: NCI-H226, 48 h, read-out: Activity
[3] = system: SF-268; experiment: Growth inhibition of human SF268 cells assessed as cell growth at 10^-7 M after 48 hrs by sulforhodamine B assay; conditions: SF-268, 48 h, read-out: Activity
[4] = system: KM12; experiment: Growth inhibition of human KM12 cells assessed as cell growth at 10^-7 M after 48 hrs by sulforhodamine B assay; conditions: KM12, 48 h, read-out: Activity
[5] = system: SW-620; experiment: Growth inhibition of human SW620 cells assessed as cell growth at 10^-5 M after 48 hrs by sulforhodamine B assay; conditions: SW-620, 48 h, read-out: Activity
[6] = system: OVCAR-3; experiment: Growth inhibition of human OVCAR3 cells assessed as cell growth at 10^-8 M after 48 hrs by sulforhodamine B assay; conditions: OVCAR-3, 48 h, read-out: Activity
[7] = Growth inhibition of human NCI-ADR-RES cells assessed as cell growth at 10^-4 M after 48 hrs by sulforhodamine B assay; conditions: read-out: Activity
[8] = system: HOP-92; experiment: Growth inhibition of human HOP92 cells assessed as cell growth at 10^-4 M after 48 hrs by sulforhodamine B assay; conditions: HOP-92, 48 h, read-out: Activity
[9] = system: OVCAR-3; experiment: Growth inhibition of human OVCAR3 cells assessed as cell growth at 10^-6 M after 48 hrs by sulforhodamine B assay; conditions: OVCAR-3, 48 h, read-out: Activity

Q: Which results are given for `COc1cc(-c2nn(-c3cccc(NC(=O)c4ccc(N5CCOCC5)c(C(F)(F)F)c4)c3)cc2-c2ccncc2)ccc1Cl`?
A: growth at 0.01 µM [1]: 111%; growth at 1 µM [2]: 28%; growth at 0.1 µM [3]: 91%; growth at 0.1 µM [4]: 64%; growth at 10 µM [5]: 17%; growth at 0.01 µM [6]: 110%; growth at 100 µM [7]: 2%; growth at 100 µM [8]: -30%

Q: With `COc1cc(-c2nn(-c3cccc(NC(=O)c4ccccc4)c3)cc2-c2ccncc2)ccc1Cl` as the compound, how does the growth at 0.01 µM [1] read?
A: 105%

Q: And the growth at 1 µM [2]?
A: 64%

Q: What about the growth at 0.1 µM [3] of the same compound?
A: 94%

Q: What about the growth at 0.1 µM [4] of the same compound?
A: 91%

Q: What about the growth at 10 µM [5] of the same compound?
A: 23%

Q: And the growth at 0.01 µM [6]?
A: 103%

Q: What about the growth at 1 µM [9] of the same compound?
A: 4%

Q: What about the growth at 100 µM [8] of the same compound?
A: -15%
